Type in all cases: cell-based
The subject of series [1] is mast cells purified from 300g male Sprague/Dawley rats. As to the kind of experiment: Histamine secretion from purified rat mast cells, 15 min preincubation, washed, C48/80 stimulation. The conditions noted are these: for Mast Cell Secretion, % of Total: 15 min preincubation, washed, then C48/80 0.1 μg/ml 10 min. On the procedure: Here, we investigated the effect of the polysaccharide chondroitin sulfate and of the flavonoid quercetin on histamine secretion from mast cells purified from 300g male Sprague/Dawley rats. Mast cells were preincubated with the test compound for 15 min at 37° C. and washed twice prior to stimulation with 0.1 μg/ml of the mast cell secretagogue compound 48/80 (C48/80) for 10 min. […] A combination of these naturally occurring products available OTC could be useful for the prevention of stress-induced gastrointestinal syndromes, such as irritable bowel syndrome or inflammatory bowel disease.

In series [2] the test system is mast cells purified from peritoneal cavities of male Sprague/Dawley rats. Kind of series: Histamine secretion from purified rat peritoneal mast cells after saccharide preincubation and wash, stimulated with C48/80 or SP. The conditions noted are these: preincubated with 10^−5 M saccharide 60 min 37° C., washed twice; for Mast Cell Secretion (% inhibition), C48/80: stimulated with 10^−5 M C48/80, n = 4; for Mast Cell Secretion (% inhibition), SP: stimulated with 10^−5 M Substance P, n = 3. The method, then:
We studied the effect of chondroitin sulfate on histamine secretion from mast cells purified from peritoneal cavities of male Sprague/Dawley rats (300g, Charles River) over 25% Metrizamide (Accurate Scientific). Mast cells were preincubated with 10^−5 M saccharide for 60 min at 37° C. followed by two washes and resuspension in saccharide-free medium prior to stimulation with 10^−5 M of the mast cell secretagogue, compound 48/80 (C48/80) or the neuropeptide Substance P (SP). As the cells were washed free of saccharide, any inhibitory effect was not due to any interference with binding of C48/80 or SP to the cell surface. Consequently, this effect is distinct from reports showing that certain monosaccharide-containing lectins inhibit C48/80-induced mast cell secretion (Matsuda, K., et al., Jpn. J. Pharmacol. 64:1, 1994).

For series [3], the system named is human leukemic mast cells. As to the kind of experiment: Proliferation of cultured human leukemic mast cells. The conditions noted are these: for Inhibition (%) of human leukemic mast cell proliferation: n = 5. The source says: Cell viability was about 90% or better.

As to `O=c1c(O)c(-c2ccc(O)c(O)c2)oc2cc(O)cc(O)c12` [Quercetin, quercetin], in series [1] (test compound 10^−6M), the “Mast Cell Secretion, % of Total” value was determined as 30.5 ± 0.5%.

As to `CC(=O)N[C@H]1C(O)O[C@H](CO)[C@@H](O)[C@@H]1O` (stereo partly drawn) [N-acetyl-glucosamine], in series [2], the “Mast Cell Secretion (% inhibition), C48/80” value is reported as 37.4 ± 10.5% and the “Mast Cell Secretion (% inhibition), SP” value is recorded as 30.8 ± 6.5%.

Regarding `N[C@H]1C(O)O[C@H](CO)[C@@H](O)[C@@H]1O.O=S(=O)(O)O` (stereo partly drawn) [D-Glucosamine sulfate], in series [2], the “Mast Cell Secretion (% inhibition), C48/80” value is on record as 33.7 ± 1.5% and the “Mast Cell Secretion (% inhibition), SP” value worked out at 27.5 ± 18.1%.

Regarding chondroitin sulfate, the “Mast Cell Secretion (% inhibition), C48/80” value in series [2] came to 75.4 ± 3.6%. Further, the “Mast Cell Secretion (% inhibition), SP” value in series [2] was found to be 38.1 ± 12.2%. Further, in series [1] (10^−4 M, C48/80 stimulation), the “maximal inhibition of mast cell activation” value is 83%. Moreover, the “Mast Cell Secretion, % of Total” value turned out to be 5.3 ± 1.3% in series [1] (test compound 10^−4M), 15.3 ± 2.7% in series [1] (test compound 10^−5M) and 31.0 ± 2.9% in series [1] (test compound 10^−6M). In addition, the “Inhibition (%) of human leukemic mast cell proliferation” value in series [3] (Day 3, 10^−4M) is reported as 57.8 ± 13.3%; in series [3] (Day 3, 10^−5M) it was 44.3 ± 12.7%; in series [3] (Day 3, 10^−6M), 27.2 ± 12.1%; in series [3] (Day 3, 10^−7M), 12.6 ± 9.6%; in series [3] (Day 4, 10^−4M), 53.1 ± 8.9%; in series [3] (Day 4, 10^−5M), 38.9 ± 9.1%. The “Inhibition (%) of human leukemic mast cell proliferation” value in series [3] (Day 4, 10^−6M) stood at 25.3 ± 9.6%; in series [3] (Day 4, 10^−7M), 14.9 ± 6.9%; in series [3] (Day 5, 10^−4M), 52.4 ± 13.9%; in series [3] (Day 5, 10^−5M) it was 31.2 ± 15.8%; in series [3] (Day 5, 10^−6M), 20.7 ± 15.2%; in series [3] (Day 5, 10^−7M), 14.7 ± 6.8%. Also, the Cell viability in series [3] (human leukemic mast cells cultured in the presence of chondroitin sulfate) was not below 90%.
